Assay results published in paper PMC11822212, “High-throughput screening identifies Aurora kinase B as a critical therapeutic target for Merkel cell carcinoma” (Nature Communications, 2025).
Where two headings read alike, the source gives them in different places.

Columns and labels:
Assay in all cases: qHTS cell viability (CellTiter-Glo, 72 h; primary and follow-up small molecule screen)
Format in all cases: cell-based, human
[1] = system: MCC13 cells (VN-MCC)
[2] = system: MCC26 cells (VN-MCC)
[3] = system: UISO cells (VN-MCC)
[4] = system: WAGA cells (VP-MCC)
[5] = system: MKL-1 cells (VP-MCC)
[6] = system: MKL-2 cells (VP-MCC)
[7] = follow-up screen, MCC13, replicate 1
[8] = follow-up screen, MCC13, replicate 2
[9] = follow-up screen, MCC13, replicate 3
[10] = follow-up screen, MCC26, replicate 1
[11] = follow-up screen, MCC26, replicate 2
[12] = follow-up screen, MCC26, replicate 3
[13] = follow-up screen, UISO, replicate 1
[14] = follow-up screen, UISO, replicate 2
[15] = follow-up screen, UISO, replicate 3
[16] = follow-up screen, WAGA, replicate 1
[17] = follow-up screen, WAGA, replicate 2
[18] = follow-up screen, WAGA, replicate 3
[19] = follow-up screen, MKL-1, replicate 1
[20] = follow-up screen, MKL-1, replicate 2
[21] = follow-up screen, MKL-1, replicate 3
[22] = follow-up screen, MKL-2, replicate 1
[23] = follow-up screen, MKL-2, replicate 2
[24] = follow-up screen, MKL-2, replicate 3

## CO/C1=C\C(C)=C\[C@@H](C)[C@@H](O)[C@@H](C)C/C(C)=C/C=C/[C@H](OC)[C@@H]([C@@H](C)[C@@H](O)[C@H](C)[C@@]2(O)C[C@@H](O)[C@H](C)[C@@H](C(C)C)O2)OC1=O [Bafilomycin A1]
[1]; [7]
  Area under the dose-response curve (AUC) MCC13 Replicate 1: 343.3
[1]; [8]
  Area under the dose-response curve (AUC) MCC13 Replicate 2: 351.4
[1]; [9]
  Area under the dose-response curve (AUC) MCC13 Replicate 3: 328.2
[2]; [10]
  Area under the dose-response curve (AUC) MCC26 Replicate 1: 325.4
[2]; [11]
  Area under the dose-response curve (AUC) MCC26 Replicate 2: 330.5
[2]; [12]
  Area under the dose-response curve (AUC) MCC26 Replicate 3: 331.3
[3]; [13]
  Area under the dose-response curve (AUC) UISO Replicate 1: 306.5
[3]; [14]
  Area under the dose-response curve (AUC) UISO Replicate 2: 264.4
[3]; [15]
  Area under the dose-response curve (AUC) UISO Replicate 3: 311.8
[4]; [16]
  Area under the dose-response curve (AUC) WAGA Replicate 1: 341.4
[4]; [17]
  Area under the dose-response curve (AUC) WAGA Replicate 2: 394.8
[4]; [18]
  Area under the dose-response curve (AUC) WAGA Replicate 3: 342.5
[5]; [19]
  Area under the dose-response curve (AUC) MKL-1 Replicate 1: 341.8
[5]; [20]
  Area under the dose-response curve (AUC) MKL-1 Replicate 2: 384.5
[5]; [21]
  Area under the dose-response curve (AUC) MKL-1 Replicate 3: 316.5
[6]; [22]
  Area under the dose-response curve (AUC) MKL-2 Replicate 1: 338.8
[6]; [23]
  Area under the dose-response curve (AUC) MKL-2 Replicate 2: 333.5
[6]; [24]
  Area under the dose-response curve (AUC) MKL-2 Replicate 3: 368.3

## CC(/C=C/C(=O)NO)=C\[C@@H](C)C(=O)c1ccc(N(C)C)cc1 [TSA]
[1]
  Area under the dose-response curve (AUC) MCC13 Replicate 1: 419.6
  Area under the dose-response curve (AUC) MCC13 Replicate 2: 438.9
  Area under the dose-response curve (AUC) MCC13 Replicate 3: 399.7
[2]
  Area under the dose-response curve (AUC) MCC26 Replicate 1: 375.6
  Area under the dose-response curve (AUC) MCC26 Replicate 2: 383.1
  Area under the dose-response curve (AUC) MCC26 Replicate 3: 360.2
[3]
  Area under the dose-response curve (AUC) UISO Replicate 1: 357.7
  Area under the dose-response curve (AUC) UISO Replicate 2: 378.3
  Area under the dose-response curve (AUC) UISO Replicate 3: 338.8
[4]
  Area under the dose-response curve (AUC) WAGA Replicate 1: 341.0
  Area under the dose-response curve (AUC) WAGA Replicate 2: 323.1
  Area under the dose-response curve (AUC) WAGA Replicate 3: 341.7
[5]
  Area under the dose-response curve (AUC) MKL-1 Replicate 1: 401.2
  Area under the dose-response curve (AUC) MKL-1 Replicate 2: 324.1
  Area under the dose-response curve (AUC) MKL-1 Replicate 3: 329.2
[6]
  Area under the dose-response curve (AUC) MKL-2 Replicate 1: 276.9
  Area under the dose-response curve (AUC) MKL-2 Replicate 2: 277.0
  Area under the dose-response curve (AUC) MKL-2 Replicate 3: 326.7

## O=C(/C=C/c1ccc(/C=C/C(=O)Nc2ccc(C3=NCCN3)cc2)cc1)Nc1ccc(C2=NCCN2)cc1 [GW 4869]
[1]
  Area under the dose-response curve (AUC) MCC13 Replicate 1: 485.4
  Area under the dose-response curve (AUC) MCC13 Replicate 2: 474.1
  Area under the dose-response curve (AUC) MCC13 Replicate 3: 483.0
[2]
  Area under the dose-response curve (AUC) MCC26 Replicate 1: 426.9
  Area under the dose-response curve (AUC) MCC26 Replicate 2: 422.1
  Area under the dose-response curve (AUC) MCC26 Replicate 3: 445.3
[3]
  Area under the dose-response curve (AUC) UISO Replicate 1: 438.7
  Area under the dose-response curve (AUC) UISO Replicate 2: 454.7
  Area under the dose-response curve (AUC) UISO Replicate 3: 432.9
[4]
  Area under the dose-response curve (AUC) WAGA Replicate 1: 473.9
  Area under the dose-response curve (AUC) WAGA Replicate 2: 513.7
  Area under the dose-response curve (AUC) WAGA Replicate 3: 487.4
[5]
  Area under the dose-response curve (AUC) MKL-1 Replicate 1: 478.1
  Area under the dose-response curve (AUC) MKL-1 Replicate 2: 455.5
  Area under the dose-response curve (AUC) MKL-1 Replicate 3: 501.6
[6]
  Area under the dose-response curve (AUC) MKL-2 Replicate 1: 446.9
  Area under the dose-response curve (AUC) MKL-2 Replicate 2: 473.7
  Area under the dose-response curve (AUC) MKL-2 Replicate 3: 455.4

## O=C1Nc2cc(Br)ccc2/C1=C1/Nc2ccccc2/C1=N\O [BIO]
[1]
  Area under the dose-response curve (AUC) MCC13 Replicate 1: 481.8
  Area under the dose-response curve (AUC) MCC13 Replicate 2: 449.1
  Area under the dose-response curve (AUC) MCC13 Replicate 3: 449.8
[2]
  Area under the dose-response curve (AUC) MCC26 Replicate 1: 419.0
  Area under the dose-response curve (AUC) MCC26 Replicate 2: 405.4
  Area under the dose-response curve (AUC) MCC26 Replicate 3: 424.1
[3]
  Area under the dose-response curve (AUC) UISO Replicate 1: 266.6
  Area under the dose-response curve (AUC) UISO Replicate 2: 275.6
  Area under the dose-response curve (AUC) UISO Replicate 3: 251.6
[4]
  Area under the dose-response curve (AUC) WAGA Replicate 1: 533.5
  Area under the dose-response curve (AUC) WAGA Replicate 2: 491.3
  Area under the dose-response curve (AUC) WAGA Replicate 3: 474.9
[5]
  Area under the dose-response curve (AUC) MKL-1 Replicate 1: 450.0
  Area under the dose-response curve (AUC) MKL-1 Replicate 2: 447.7
  Area under the dose-response curve (AUC) MKL-1 Replicate 3: 422.6
[6]
  Area under the dose-response curve (AUC) MKL-2 Replicate 1: 490.0
  Area under the dose-response curve (AUC) MKL-2 Replicate 2: 435.9
  Area under the dose-response curve (AUC) MKL-2 Replicate 3: 463.9

## COCc1c(C(C)C)nc(C(C)C)c(/C=C/[C@@H](O)C[C@@H](O)CC(=O)O)c1-c1ccc(F)cc1 [Cerivastatin sodium]
[1]; [7]
  Area under the dose-response curve (AUC) MCC13 Replicate 1: 319.0
[1]; [8]
  Area under the dose-response curve (AUC) MCC13 Replicate 2: 316.5
[1]; [9]
  Area under the dose-response curve (AUC) MCC13 Replicate 3: 320.7
[2]; [10]
  Area under the dose-response curve (AUC) MCC26 Replicate 1: 312.2
[2]; [11]
  Area under the dose-response curve (AUC) MCC26 Replicate 2: 285.4
[2]; [12]
  Area under the dose-response curve (AUC) MCC26 Replicate 3: 322.6
[3]; [13]
  Area under the dose-response curve (AUC) UISO Replicate 1: 255.3
[3]; [14]
  Area under the dose-response curve (AUC) UISO Replicate 2: 261.7
[3]; [15]
  Area under the dose-response curve (AUC) UISO Replicate 3: 240.8
[4]; [16]
  Area under the dose-response curve (AUC) WAGA Replicate 1: 385.6
[4]; [17]
  Area under the dose-response curve (AUC) WAGA Replicate 2: 358.6
[4]; [18]
  Area under the dose-response curve (AUC) WAGA Replicate 3: 363.6
[5]; [19]
  Area under the dose-response curve (AUC) MKL-1 Replicate 1: 337.1
[5]; [20]
  Area under the dose-response curve (AUC) MKL-1 Replicate 2: 326.8
[5]; [21]
  Area under the dose-response curve (AUC) MKL-1 Replicate 3: 335.0
[6]; [22]
  Area under the dose-response curve (AUC) MKL-2 Replicate 1: 362.8
[6]; [23]
  Area under the dose-response curve (AUC) MKL-2 Replicate 2: 331.4
[6]; [24]
  Area under the dose-response curve (AUC) MKL-2 Replicate 3: 356.5

## COc1ccc([C@]2(C#N)CC[C@@H](C(=O)O)CC2)cc1OC1CCCC1 [Cilomilast]
[1]; [7]
  Area under the dose-response curve (AUC) MCC13 Replicate 1: 465.9
[1]; [8]
  Area under the dose-response curve (AUC) MCC13 Replicate 2: 445.9
[1]; [9]
  Area under the dose-response curve (AUC) MCC13 Replicate 3: 491.5
[2]; [10]
  Area under the dose-response curve (AUC) MCC26 Replicate 1: 421.1
[2]; [11]
  Area under the dose-response curve (AUC) MCC26 Replicate 2: 410.0
[2]; [12]
  Area under the dose-response curve (AUC) MCC26 Replicate 3: 436.1
[3]; [13]
  Area under the dose-response curve (AUC) UISO Replicate 1: 447.9
[3]; [14]
  Area under the dose-response curve (AUC) UISO Replicate 2: 471.9
[3]; [15]
  Area under the dose-response curve (AUC) UISO Replicate 3: 485.5
[4]; [16]
  Area under the dose-response curve (AUC) WAGA Replicate 1: 477.6
[4]; [17]
  Area under the dose-response curve (AUC) WAGA Replicate 2: 504.5
[4]; [18]
  Area under the dose-response curve (AUC) WAGA Replicate 3: 496.1
[5]; [19]
  Area under the dose-response curve (AUC) MKL-1 Replicate 1: 459.2
[5]; [20]
  Area under the dose-response curve (AUC) MKL-1 Replicate 2: 478.6
[5]; [21]
  Area under the dose-response curve (AUC) MKL-1 Replicate 3: 483.6
[6]; [22]
  Area under the dose-response curve (AUC) MKL-2 Replicate 1: 473.7
[6]; [23]
  Area under the dose-response curve (AUC) MKL-2 Replicate 2: 471.8
[6]; [24]
  Area under the dose-response curve (AUC) MKL-2 Replicate 3: 486.7

## COc1ccc(C(=O)CC(=O)c2ccc(C(C)(C)C)cc2)cc1 [Avobenzone]
[1]; [7]
  Area under the dose-response curve (AUC) MCC13 Replicate 1: 464.5
[1]; [8]
  Area under the dose-response curve (AUC) MCC13 Replicate 2: 464.7
[1]; [9]
  Area under the dose-response curve (AUC) MCC13 Replicate 3: 487.0
[2]; [10]
  Area under the dose-response curve (AUC) MCC26 Replicate 1: 418.2
[2]; [11]
  Area under the dose-response curve (AUC) MCC26 Replicate 2: 424.5
[2]; [12]
  Area under the dose-response curve (AUC) MCC26 Replicate 3: 411.6
[3]; [13]
  Area under the dose-response curve (AUC) UISO Replicate 1: 448.1
[3]; [14]
  Area under the dose-response curve (AUC) UISO Replicate 2: 466.1
[3]; [15]
  Area under the dose-response curve (AUC) UISO Replicate 3: 426.5
[4]; [16]
  Area under the dose-response curve (AUC) WAGA Replicate 1: 495.5
[4]; [17]
  Area under the dose-response curve (AUC) WAGA Replicate 2: 492.2
[4]; [18]
  Area under the dose-response curve (AUC) WAGA Replicate 3: 489.4
[5]; [19]
  Area under the dose-response curve (AUC) MKL-1 Replicate 1: 452.4
[5]; [20]
  Area under the dose-response curve (AUC) MKL-1 Replicate 2: 457.3
[5]; [21]
  Area under the dose-response curve (AUC) MKL-1 Replicate 3: 467.2
[6]; [22]
  Area under the dose-response curve (AUC) MKL-2 Replicate 1: 491.6
[6]; [23]
  Area under the dose-response curve (AUC) MKL-2 Replicate 2: 475.6
[6]; [24]
  Area under the dose-response curve (AUC) MKL-2 Replicate 3: 463.7
